The source of these data is PubChem BioAssay AID330 (DTP/NCI, 2004).

“And” between values parts separate entries of the source, which are not always exact repeats. Identical values can stand only once. Inconclusive results and toxic doses are left out.

The test system of this assay is P388 leukemia ip, CD2F1 mice, survival T/C. The experiment in a line: NCI In Vivo Anticancer Drug Screen. Data for tumor model P388 Leukemia (intraperitoneal) in CD2F1 (CDF1) mice. As to conditions: endpoint: median survival time, higher = longer survival. In short, it runs like this: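 Mice carrying the transplanted tumor received test compound or vehicle. Survival was recorded in each group, and the value is the treated-group measurement divided by that of the vehicle-treated control group.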

Setting [1] is: dose: 12.5 mg/kg/injection, schedule: Q01DX009 (ip), vehicle: saline with Tween-80.
Where [2] appears, read: dose: 50.0 mg/kg/injection, schedule: Q01DX009 (ip), vehicle: saline with Tween-80.
Setting [3] is: dose: 100.0 mg/kg/injection, schedule: Q01DX009 (ip), vehicle: saline with Tween-80.
The mark [4] stands for this setting: dose: 60.0 mg/kg/injection, schedule: Q01DX005 (ip), vehicle: saline with Tween-80.
Setting [5] is: dose: 120.0 mg/kg/injection, schedule: Q01DX005 (ip), vehicle: saline with Tween-80.
Where [6] appears, read: dose: 240.0 mg/kg/injection, schedule: Q01DX005 (ip), vehicle: saline with Tween-80.
Setting [7] is: dose: 200.0 mg/kg/injection, schedule: Q01DX009 (ip), vehicle: saline with Tween-80.

As to `CN1C(=O)Cn2c(nn(Cc3ccccc3)c(=O)c2=O)-c2cc(Cl)ccc21`, the T/C reads like this: (dose: 100.0 mg/kg/injection, schedule: Q01DX001 (ip), vehicle: Klucel (hydroxypropylcellulose) (HPC)) 96 % of control; (dose: 200.0 mg/kg/injection, schedule: Q01DX001 (ip), vehicle: Klucel (hydroxypropylcellulose) (HPC)) 101 % of control; (dose: 400.0 mg/kg/injection, schedule: Q01DX001 (ip), vehicle: Klucel (hydroxypropylcellulose) (HPC)) 99 % of control.
With `CC(C)N1C(=O)C(C#N)=C(c2ccccc2)SC1c1ccccc1` (configuration not stated), the T/C by setting is: (dose: 3.13 mg/kg/injection, schedule: Q01DX009 (ip), vehicle: saline with Tween-80) 104 % of control; (dose: 6.25 mg/kg/injection, schedule: Q01DX009 (ip), vehicle: saline with Tween-80) 101 % of control; under setting [1], 106 % of control; under setting [2], 94 % of control; under setting [3], 99 % of control.
Consider `COc1ccc(CCN2C(=O)C(=O)N(C)C2=O)cc1OC`, for which the T/C runs as follows: (dose: 50.0 mg/kg/injection, schedule: Q01DX009 (ip), vehicle: Klucel (hydroxypropylcellulose) (HPC)) 90 % of control; (dose: 100.0 mg/kg/injection, schedule: Q01DX009 (ip), vehicle: Klucel (hydroxypropylcellulose) (HPC)) 96 % of control; (dose: 200.0 mg/kg/injection, schedule: Q01DX009 (ip), vehicle: Klucel (hydroxypropylcellulose) (HPC)) 102 % of control.
On to `NC(=O)C#CC(N)=O`, for which the T/C is, setting by setting: (dose: 0.11 mg/kg/injection, schedule: Q01DX009 (ip), vehicle: Klucel (hydroxypropylcellulose) (HPC)) 100 % of control and 103 % of control; (dose: 0.22 mg/kg/injection, schedule: Q01DX009 (ip), vehicle: Klucel (hydroxypropylcellulose) (HPC)) 100 % of control and 119 % of control; (dose: 0.45 mg/kg/injection, schedule: Q01DX009 (ip), vehicle: Klucel (hydroxypropylcellulose) (HPC)) 103 % of control and 119 % of control; (dose: 0.9 mg/kg/injection, schedule: Q01DX009 (ip), vehicle: Klucel (hydroxypropylcellulose) (HPC)) 100 % of control and 114 % of control.
Consider `COc1cc(/C=C/C(=O)NCCc2ccc(OCc3ccccc3)c(OC)c2)ccc1OCc1ccccc1`, for which the T/C (dose: 100.0 mg/kg/injection, schedule: Q01DX001 (ip), vehicle: saline with Tween-80) was 88 % of control; the T/C (dose: 200.0 mg/kg/injection, schedule: Q01DX001 (ip), vehicle: saline with Tween-80) is 89 % of control; the T/C (dose: 400.0 mg/kg/injection, schedule: Q01DX001 (ip), vehicle: saline with Tween-80) was 90 % of control.
As for `O=[N+]([O-])c1ccc(/C=C/S(=O)(=O)/C=C\c2ccccc2)cc1`, the T/C (dose: 50.0 mg/kg/injection, schedule: Q01DX005 (ip), vehicle: saline with Tween-80) was 101 % of control; the T/C (dose: 100.0 mg/kg/injection, schedule: Q01DX005 (ip), vehicle: saline with Tween-80) is 97 % of control; the T/C (dose: 200.0 mg/kg/injection, schedule: Q01DX005 (ip), vehicle: saline with Tween-80) was 88 % of control.
`O=C(Oc1c(OC(=O)c2ccccc2)c(OC(=O)c2ccccc2)c(OC(=O)c2ccccc2)c(OC(=O)c2ccccc2)c1OC(=O)c1ccccc1)c1ccccc1`: the T/C by setting is: (dose: 100.0 mg/kg/injection, schedule: Q04DX002 (ip), vehicle: saline with Tween-80) 107 % of control; (dose: 200.0 mg/kg/injection, schedule: Q04DX002 (ip), vehicle: saline with Tween-80) 94 % of control; (dose: 400.0 mg/kg/injection, schedule: Q04DX002 (ip), vehicle: saline with Tween-80) 89 % of control.
Turning to `NC(=O)CS(=O)CC(N)C(=O)O` (configuration not stated), the T/C reads like this: (dose: 50.0 mg/kg/injection, schedule: Q01DX005 (ip), vehicle: saline) 100 % of control; (dose: 100.0 mg/kg/injection, schedule: Q01DX005 (ip), vehicle: saline) 105 % of control; (dose: 200.0 mg/kg/injection, schedule: Q01DX005 (ip), vehicle: saline) 95 % of control.
As for `O=C(c1ccccc1)N1CC1`, the T/C is, setting by setting: (dose: 50.0 mg/kg/injection, schedule: Q01DX009 (ip), vehicle: saline + alcohol) 94 % of control; (dose: 100.0 mg/kg/injection, schedule: Q01DX009 (ip), vehicle: saline + alcohol) 97 % of control; (dose: 200.0 mg/kg/injection, schedule: Q01DX009 (ip), vehicle: saline + alcohol) 100 % of control; (dose: 400.0 mg/kg/injection, schedule: Q01DX009 (ip), vehicle: saline + alcohol) 116 % of control.
With `C=C(C(=O)OC)C1C=CC2OC(C)(C)OCC2O1` (configuration not stated), the T/C (dose: 60.0 mg/kg/injection, schedule: Q01DX005 (ip), vehicle: saline) is 113 % of control; the T/C (dose: 120.0 mg/kg/injection, schedule: Q01DX005 (ip), vehicle: saline) was 106 % of control; the T/C (dose: 240.0 mg/kg/injection, schedule: Q01DX005 (ip), vehicle: saline) was 109 % of control.
On to `COc1ccc2nc(C)c(C(=O)O)c(C(=O)O)c2c1`, for which the T/C reads like this: (dose: 50.0 mg/kg/injection, schedule: Q01DX009 (ip), vehicle: suspension in saline) 99 % of control; (dose: 100.0 mg/kg/injection, schedule: Q01DX009 (ip), vehicle: suspension in saline) 103 % of control; (dose: 200.0 mg/kg/injection, schedule: Q01DX009 (ip), vehicle: suspension in saline) 108 % of control.
Regarding `C=C(C)c1nc(N)nc(N2CCCCC2)n1`, the T/C by setting is: (dose: 50.0 mg/kg/injection, schedule: Q01DX005 (ip), vehicle: Klucel (hydroxypropylcellulose) (HPC)) 98 % of control; (dose: 100.0 mg/kg/injection, schedule: Q01DX005 (ip), vehicle: Klucel (hydroxypropylcellulose) (HPC)) 102 % of control; (dose: 200.0 mg/kg/injection, schedule: Q01DX005 (ip), vehicle: Klucel (hydroxypropylcellulose) (HPC)) 117 % of control.
For `COc1cccc2c(NCCCCCCCCNc3c4ccccc4nc4c(OC)cccc34)c3ccccc3nc12`, the T/C was 169 % of control (dose: 1.25 mg/kg/injection, schedule: Q01DX009 (ip), vehicle: lactic acid); 189 % of control (dose: 2.5 mg/kg/injection, schedule: Q01DX009 (ip), vehicle: lactic acid); 154 % of control (dose: 5.0 mg/kg/injection, schedule: Q01DX009 (ip), vehicle: other).
For the molecule `CN(C)c1ccc(/C=N/N=C(/C#N)[S][Sn]([S]/C(C#N)=N/N=C/c2ccc(N(C)C)cc2)([c]2ccccc2)[c]2ccccc2)cc1`, the T/C is 112 % of control (dose: 7.5 mg/kg/injection, schedule: Q01DX005 (ip), vehicle: saline with Tween-80) and 123 % of control (dose: 15.0 mg/kg/injection, schedule: Q01DX005 (ip), vehicle: saline with Tween-80).
Regarding `Cc1cc([N+](=O)[O-])ccc1NC(=O)OC(C)C`, the T/C was 99 % of control under setting [4], 111 % of control under setting [5] and 99 % of control under setting [6].
Turning to `Cc1cccc2cc3ccccc3c[n+]12`, the T/C (dose: 6.25 mg/kg/injection, schedule: Q01DX005 (ip), vehicle: saline + Tween-80 + alcohol) was 101 % of control; the T/C (dose: 12.5 mg/kg/injection, schedule: Q01DX005 (ip), vehicle: saline + Tween-80 + alcohol) was 101 % of control; the T/C (dose: 25.0 mg/kg/injection, schedule: Q01DX005 (ip), vehicle: saline + Tween-80 + alcohol) is 101 % of control.
`CN(C)c1nc(=O)c2c(o1)CC(C)(C)C2`: the T/C by setting is: (dose: 100.0 mg/kg/injection, schedule: Q04DX003 (ip), vehicle: Klucel (hydroxypropylcellulose) (HPC)) 110 % of control; (dose: 200.0 mg/kg/injection, schedule: Q04DX003 (ip), vehicle: Klucel (hydroxypropylcellulose) (HPC)) 109 % of control; (dose: 400.0 mg/kg/injection, schedule: Q04DX003 (ip), vehicle: Klucel (hydroxypropylcellulose) (HPC)) 90 % of control.
In the case of `COc1ccc2c(n1)Sc1nc3ccccc3nc1N2`, the T/C is 100 % of control under setting [4], 100 % of control under setting [5] and 101 % of control under setting [6].
Take `CCn1c2ccccc2c2cc(N=Nc3ccnc4c(O)cccc34)ccc21`: the T/C by setting is: under setting [1], 119 % of control; (dose: 25.0 mg/kg/injection, schedule: Q01DX009 (ip), vehicle: saline with Tween-80) 117 % of control; under setting [3], 108 % of control and 97 % of control.
With `Cc1cc(O)c(C(c2ccc3c(c2)OCO3)c2c(O)cc(C)[nH]c2=O)c(=O)[nH]1`, the T/C under setting [2] was 92 % of control, the T/C under setting [3] is 98 % of control and the T/C under setting [7] is 95 % of control.
`Cc1ccc(Nc2ccc(Nc3ccc(C)cc3)c3c2C(=O)c2cccc(O)c2C3=O)cc1`: the T/C reads like this: under setting [2], 101 % of control; under setting [3], 95 % of control; under setting [7], 97 % of control.
For `COc1ccc(N2CSC(=S)N(c3ccc(OC)cc3)C2)cc1`, the T/C (dose: 400.0 mg/kg/injection, schedule: Q01DX009 (ip), vehicle: saline with Tween-80) is 86 % of control.
